Test results reported in article PMC6158578, “Optimization and Lead Selection of Benzothiazole Amide Analogs Toward a Novel Antimycobacterial Agent” (Frontiers in Microbiology, 2018).
≈ marks a conversion by molar mass, not a printed value. Where two headings read alike, the source gives them in different places.

How the values were obtained:
[1] = test system: M. abscessus massiliense 119; experiment: MIC, broth microdilution with resazurin (MHB, 3 days); format: cell-based; conditions: Mycobacteroides abscessus; M. abscessus massiliense 119; read-out: MIC
M. chelonae 93 = experiment: as above; format: cell-based; conditions: Mycobacteroides chelonae; M. chelonae 93; read-out: MIC
M. chimaera 1502055 = experiment: MIC, Middlebrook medium (7H9 + OADC, 7 days); format: cell-based; conditions: 168 h; M. chimaera 1502055; read-out: MIC
S. pneumoniae ATCC 49619 = experiment: MIC, spectrum of activity; format: cell-based; conditions: Streptococcus pneumoniae, ATCC49619; S. pneumoniae ATCC 49619; read-out: MIC
[2] = test system: E. coli tolC CGSC 5633 (efflux mutant strain); experiment: microbe, parasite or virus in culture; format: cell-based; conditions: Escherichia coli
[3] = test system: E. coli ATCC 25922 + PMBN (permeabilized); experiment: MIC, spectrum of activity; format: cell-based; conditions: Escherichia coli, ATCC25922
P. aeruginosa ATCC 35151 = experiment: MIC, spectrum of activity; format: cell-based; conditions: Pseudomonas aeruginosa, ATCC35151; P. aeruginosa ATCC 35151; read-out: MIC
[4] = test system: Anaerobes (n > 20 strains); experiment: organism not typed; format: cell-based
HepG2 cytotoxicity, 72 h = format: cell-based; conditions: human, HepG2 cells, HepG2, 72 h, read-out: HepG2 cytotox., IC50
Procedure: ADMET assays were performed through NIAID Preclinical Services and Eurofins. Potential for cytotoxicity was monitored in HepG2 cells after 72 h growth in the presence of test compounds, either prepared as 10-point 3-fold serial dilutions or at a fixed 10 μM concentration. Cell viability was measured using the CellTiter-Glo® Luminescent Cell Viability Assay (Promega) or via fluorescent image analysis. Cytotoxicity was expressed as IC50 or as percent reduction of viable cells relative to a reference compound. Metabolic stability of compounds was evaluated via incubation with human liver microsomes at 37°C and quantitative analysis of parent compound by LC-MS/MS in samples removed at 0, 5, 15, 30, and 45 min (Obach, [1999]). For cytochrome P450 (CYP) inhibition assays, compounds were prepared as a 7-point dilution series and incubated with human liver microsomes in buffer containing 2 mM NADPH and probe substrate. […] Thermodynamic solubility of compounds in aqueous media was determined by incubation in 50 mM potassium phosphate buffer (pH 7.4) for 24 h, followed by HPLC-UV detection of compound in the filtrate (Analiza, Cleveland, OH, United States).

[5] = test system: mycolic acid transfer in Mabs ATCC19977; experiment: Metabolic labeling with [14C]acetate; format: cell-based, M. abscessus; conditions: 2x and 10x MIC
[6] = Mouse oral PK and tolerability; format: in vivo, female CD-1 mice; conditions: oral 100 mg/kg
[7] = 50% complement-inactivated human serum

Work on `CC12CC3CC(C)(C1)CC(C(=O)Nc1nc4ccc(OC(F)(F)F)cc4s1)(C3)C2` [CRS400226] yielded an MIC [1] of 0.25 µg/mL (≈ 0.589 µM), an MIC (M. chelonae 93) of 0.5 µg/mL (≈ 1.18 µM) and an MIC (M. chimaera 1502055) of 1 µg/mL. The MIC (S. pneumoniae ATCC 49619) was 64 µg/mL (≈ 151 µM), the MIC [2] was > 64 µg/mL and the MIC [3] was > 64 µg/mL. The MIC (P. aeruginosa ATCC 35151) was > 64 µg/mL, the MIC [4] was > 16 µg/mL and the IC50 at 72 h (HepG2 cytotoxicity, 72 h) was 69 µM. The IC50 at 72 h (HepG2 cytotoxicity, 72 h; value in brackets) was 29 µg/mL, the “effect on mycolic acid transfer to arabinogalactan and trehalose dimycolates” value [5] was “concentration-dependent inhibition of mycolic acid transfer” and the concentration at 1 h ([6]; mouse, plasma, female CD-1 mice, 1 h, read-out: plasma level) was 2300 ng/mL. For the same compound, the concentration at 8 h ([6]; mouse, plasma, female CD-1 mice, 8 h, read-out: plasma level) was 2000 ng/mL, the “tolerability of oral dosing” value ([6]; mice) was “highly tolerated” and the “Protein (serum) binding” value [7] was >95%.
